One data set concerns the target T1, ultraView HRP multimer (Armoracia rusticana, UniProt P00433).
T1 construct: purchased Ventana Medical Systems (ultraView kit component)
T1 sequence (P00433 31-338 limits assumed): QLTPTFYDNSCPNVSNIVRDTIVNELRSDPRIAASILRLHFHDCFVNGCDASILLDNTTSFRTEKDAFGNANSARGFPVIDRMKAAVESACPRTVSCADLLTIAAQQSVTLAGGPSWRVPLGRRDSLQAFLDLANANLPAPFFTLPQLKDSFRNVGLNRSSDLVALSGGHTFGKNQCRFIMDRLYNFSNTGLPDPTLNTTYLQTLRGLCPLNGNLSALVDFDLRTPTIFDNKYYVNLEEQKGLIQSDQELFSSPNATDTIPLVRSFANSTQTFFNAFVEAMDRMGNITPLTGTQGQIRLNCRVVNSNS
Kind of data set: Michaelis-Menten kinetics of HRP-oxidized DAB with enhanced DAB chromogen mixtures. Format: biochemical, horseradish. As to the method:
To further study the synergistic effect in the increased apparent Vmax for HRP-oxidized DAB, Michaelis-Menten kinetics were calculated for the best enhanced DAB chromogen mixtures in Table 3. […] The definition of Vmax=kcat·[E]total when the enzyme substrate concentration was at saturation levels. When the concentration of enzyme was kept constant, the apparent Vmax is proportional to kcat (the apparent turnover for HRP or the first order rate constant).

The target of data set [1] is T2, horseradish peroxidase (HRP) (Armoracia rusticana, UniProt P00433).
T2 construct: purchased VMSI (Ventana Medical Systems, Inc.) 760-500: 253-4290, 253-4292 and 253-4293
The data set can be described thus: Plate assay: kinetic screening of enhancers of HRP-mediated DAB oxidation (ultraView Detection Kit, OD 455 nm). Format: biochemical. The following applies: for Vmax (apparent, HRP-oxidized DAB): no enhancer 18.50; for Percent increase of apparent Vmax of HRP: relative to uView Vmax without enhancement. As to the method:
The additives were directly added to a well containing the necessary reagents from the ultraView™ Detection Kit (VMSI 760-500: 253-4290, 253-4292 and 253-4293) in 1× Reaction Buffer (VMSI 950-300) and 0.1% fish gelatin. Fish gelatin was used to help disperse the oxidized DAB and inhibit its precipitation from solution. The ultraView™ Detection Kit was diluted to measure the formation of oxidized DAB by UV-VIS at 455 nm. Additives were tested at set concentrations to determine enhancement in the DAB oxidation reaction. The data were graphed, and the apparent maximum velocity (Vmax) was calculated at each additive concentration level.

Data set [2] is described as follows: Solubility of additive in reaction buffer / aqueous buffers. It counts as physicochemical.
For the next data set, the system named is bcl2 in tonsil tissue. Kind of data set: TSA-IHC tissue staining of bcl2 in tonsil tissue (TA-HQ deposition). Here is the method: Enhanced DAB deposition was evaluated on a TSA-IHC tissue staining of bcl2 in tonsil tissue. […] Tyramide deposition was performed with and without 10 mM 2-hydroxypyrimidine. […] The percent of cells stained with DAB increased in areas with low bcl2 antigen expression. Formalin fixed paraffin embedded tonsil tissue was mounted on Superfrost slides, deparaffinized and antigen retrieved using CC1 bulk reagent (Ventana® p/n 950-124). […] Slides were counterstained using Hematoxylin II (Ventana® p/n 790-2208) and Bluing Reagent (Ventana® p/n760-2037). The slides were dehydrated using gradient alcohols, cover slipped and viewed using a bright field microscope (FIGS. 23-26).

The target of data set [3] is T2, horseradish peroxidase (HRP). The data set can be described thus: Plate assay: enhancers added sequentially to ultraView Detection Kit (synergistic/antagonistic effects). Format: biochemical. To be noted: NMO added to mixture 4; 50 mM L-histidine or 10 mM pyrimidine added to mixture 5. As to the method: The same concentration of reagents from the ultraView™ Detection Kit (VMSI 760-500: 253-4290, 253-4292 and 253-4293) were used in 1× Reaction Buffer™ containing 0.1% fish gelatin for each trial. In each trial, the enhancers were added together one at a time.

For data set [4], the system named is HER-2 positive CaLu3 carcinoma cell lines. Kind of data set: ISH tissue staining with HER2 DNA probe on HER-2 3-in-1 mouse xenografts. To be noted: 10 mM in DAB Chromogen solution; CaLu3 carcinoma cells. Here is the method:
ISH tissue staining was examined using enhanced DAB solutions. HER-2 3-in-1 mouse xenografts of HER-2 positive carcinoma cell lines CaLu3, ZR-75-1 and MCF7 were treated with HER2 DNA probe (VMSI 480-4495) and stained with the ultraView™ DAB Chromogen solution or an enhanced DAB Chromogen solution containing 10 mM L-histidine (see FIGS. 21-22). […] The increased DAB deposition was marginal for the strongest ISH signals, but signal intensity for the weaker DAB signals was raised throughout the tissue. The same observation was made with enhanced DAB deposition in IHC.

Data set [5] in a line: Compatibility and stability of reformulated DAB Chromogen solution with additive. Format: physicochemical. To be noted: higher concentrations of imidazole; 50 mM L-histidine.
Setting [6] is: enhancer 50 mM, (sat) = reaction rate saturated by start of UV-VIS analysis.
Setting [7] is: enhancer 100 mM, (sat) = reaction rate saturated by start of UV-VIS analysis.

The values below come from US9435795B2, “Enhanced deposition of chromogens utilizing pyrimidine analogs” (Ventana Medical Systems, Inc., priority 2010, dated 2016).

SMILES strings stand for the structures.

`Oc1ncccn1` [2-Hydroxypyrimidine]: the Vmax on ultraView HRP multimer (enhancer 10 mM in 50 mM imidazole, 10 mM calcium chloride, 10 mM boric acid) is on record as 320 mOD/min. The “Vmax (apparent, HRP-oxidized DAB)” value in data set [1] (enhancer 10 mM) is reported as 144.00 mOD/min; in data set [1] (setting [6]), 156.00 mOD/min; in data set [1] (setting [7]), 148.00 mOD/min. Besides, the “Solubility in aqueous buffers (in words)” value in data set [2] was “do not have solubility or volatility problems”. Also, the “Tyramide deposition in TSA-IHC staining (in words)” value with bcl2 in tonsil tissue (10 mM during tyramide deposition, 8 minute primary Ab incubation) is recorded as “increased the tyramide deposition”.

Regarding `N[C@@H](Cc1c[nH]cn1)C(=O)O` [L-Histidine], the Vmax came out at 300 mOD/min at ultraView HRP multimer (10 mM buffer salt with 10 mM pyrimidine, no enhancer 228) and 317 mOD/min at ultraView HRP multimer (50 mM buffer salt with 10 mM 2-hydroxypyrimidine (FIG. 19: also 10 mM boric acid, 10 mM calcium chloride)). The “Vmax (apparent, HRP-oxidized DAB)” value is given as 21.84 mOD/min in data set [1] (enhancer 10 mM), 44.00 mOD/min in data set [1] (setting [6]) and 72.00 mOD/min in data set [1] (setting [7]). In addition, the figures for the “Percent increase of apparent Vmax of HRP” value in data set [1] (enhancer 10 mM) and in data set [1] (enhancer 50 mM) were 18% and 138%, respectively. Besides, the “Effect on apparent velocity of HRP when added to a preceding assay mixture of Table 2” value in data set [3] was “increased the apparent velocity of HRP”. In addition, the “DAB deposition in TSA-IHC staining (in words)” value in the data set on bcl2 in tonsil tissue (10 mM in DAB Chromogen solution, 16 minute primary Ab incubation) was “increased the DAB deposition on tissue”. The “DAB deposition in ISH staining (in words)” value in data set [4] is “increased the deposition of DAB”. For the same compound, the “Precipitation of DAB from reformulated DAB Chromogen solution” value in data set [5] is given as “caused the precipitation of DAB”.
